“Also recorded” adds a separate entry of the source. Values belong to the molecule of their own block, whether it stands above or below them.
How the values were obtained:
Assay type in all cases: cell-based, human
induced PSC (iPSC) line = assay: Induction of CDX2-expressing axial progenitors in an induced PSC line; settings: CHIR increased from 3 to 4 μM
Procedure: Human PSC embryoid body-based differentiation was performed as previously described (Maury et al., 2015). hPSC were dissociated with cold Accutase (Life Technologies) for 3 to 5 min at 37° C. and resuspended in differentiation medium N2B27 (Advanced DMEM F12, Neurobasal vol:vol (Life Technologies)), supplemented with N2 (Life Technologies), B27 without Vitamin A (Life technologies), penicillin/streptomycin 1%, β-Mercaptoéthanol 0.1% (Life Technologies), with Y-27632 (10 μM, Stemgent or Stem Cell Technologies), CHIR-99021 (3 μM or 4 μM Selleckchem) SB431542 (20 μM, Selleckchem) and LDN 193189 (0.1 μM, Selleckchem). 2×10^5 cells ml^-1 were seeded in ultra-low attachment 6 well plates (Corning) to form embryoid bodies (EBs). All conditions of differentiation received the same medium at day 2 and at day 3 but SB431542 was removed at day 3. Then, the differentiation proceeded according to the […] presented above the figures. SAG (Smoothened Agonist, Merck millipore), FGF2 (Recombinant Human FGF basic, Peprotech), RA (Sigma-Aldrich), GDF11 (Recombinant Human/Murine/Rat GDF11, Peprotech), PD0325901 (Selleckchem), PD173074, SCH772984 (Selleckchem), DAPT (Stemgent) were added at indicated time points. For concentrations see Table S2. Media were changed every other day unless specified. […]

[1] = system: HOX genes in hPSC-derived axial progenitors; assay: Real time PCR analysis of HOX mRNAs in progenitors; settings: for temporal increase of HOXC6, C8 and C9 mRNAs in progenitors: inhibitor at D3, progenitors at D4 and D5
Procedure: (§1) Human PSC embryoid body-based differentiation was performed as previously described (Maury et al., 2015). hPSC were dissociated with cold Accutase (Life Technologies) for 3 to 5 min at 37° C. and resuspended in differentiation medium N2B27 (Advanced DMEM F12, Neurobasal vol:vol (Life Technologies)), supplemented with N2 (Life Technologies), B27 without Vitamin A (Life technologies), penicillin/streptomycin 1%, β-Mercaptoéthanol 0.1% (Life Technologies), with Y-27632 (10 μM, Stemgent or Stem Cell Technologies), CHIR-99021 (3 μM or 4 μM Selleckchem) SB431542 (20 μM, Selleckchem) and LDN 193189 (0.1 μM, Selleckchem). 2×10^5 cells ml^−1 were seeded in ultra-low attachment 6 well plates (Corning) to form embryoid bodies (EBs). All conditions of differentiation received the same medium at day 2 and at day 3 but SB431542 was removed at day 3. Then, the differentiation proceeded according to the schemas presented above the figures. SAG (Smoothened Agonist, Merck millipore), FGF2 (Recombinant Human FGF basic, Peprotech), RA (Sigma-Aldrich), GDF11 (Recombinant Human/Murine/Rat GDF11, Peprotech), PD0325901 (Selleckchem), PD173074, SCH772984 (Selleckchem), DAPT (Stemgent) were added at indicated time points. For concentrations see Table S2. Media were changed every other day unless specified.
Total RNA were extracted (RNAeasy Plus Mini Kit, Qiagen) and cDNA synthesized using SuperScript III (Invitrogen). Quantitative real-time PCR was performed using a 7900HT fast real time PCR system (Applied Biosystems) with Sybr Green PCR Master Mix (Applied Biosystems). Alternatively performed using QuantStudio 5 Real-Time PCR System (Thermofisher Scientific) and a mix with qPCR Brilliant II SYBR MM with low ROX (Agilent). Primers are listed in Supplementary Table 3. All expression data were normalized to Cyclophilin A mRNA. All analyses were performed with three technical replicates per plate. Relative expression levels were determined by calculating 2-ΔΔCt.

[2] = system: hPSC-derived axial progenitors; assay: Motor neuron (MN) subtype specification: immunostaining of embryoid bodies on day 14 of differentiation, proportion of MNs (ISL1+ cells) expressing HOX/FOXP1/SCIP markers; settings: for rostro-caudal identity of MNs generated: inhibitor added at D3 up to D7, RA/SAG at D7; for efficiency of MN generation: inhibitor from D3 to D7, RA/SAG at D7; for MN identities induced: extrinsic cue added on D3 with RA/SAG, all concentrations and durations
Procedure: as §1
EBs were collected, rinsed with PBS then fixed with 4% PFA for 5 min at 4° C. and rinsed with PBS 3 times for 5 min. EBs were cryoprotected with 30% sucrose and embedded in OCT (Leica) prior sectioning with a cryostat. Alternatively, day 2, 3 and 4 progenitors were plated on Matrigel (Corning, diluted according to manufacturer recommendation) coated coverslips and let to adhere between for 30 min prior fixation with 4% PFA for 5 min at 4° C.
All immunostainings were performed as follow: cells or sections were incubated with a saturation solution (PBS/FBS 10%/0.2% Triton) for 10 minutes. Primary antibodies (Table S3) were diluted in staining solution (PBS/2% FBS/0.2% Triton) and incubated overnight at 4° C. in a humidified chamber. Following 4 PBS washes (10 min each), secondary antibodies (Alexa488, Alexa568 and Alexa647, Life Technologies, 1:1,000) were added for 1 h at RT. After 3 PBS washes, DAPI was added on the cells (Invitrogen, 1:3,000) for 5 min. Cells or slices were then mounted in Fluoromount (Sigma Aldrich or Cliniscience).
Samples were visualized and imaged using either a ZEISS LSM 880 Confocal Laser Scanning Microscope (Carl Zeiss Microscopy) controlled by Zen black software (Zeiss), a confocal microscope TCS SP5 II (Leica) or a DM6000 microscope (Leica) equipped with CoolSNAP EZ CDD camera, controlled by MetaMorph software (MetaMorph Inc). Alternatively, images were acquired using the automated microscope Cell Discoverer 7 (Zeiss), equipped with an Axiocam 506 m camera, with Zen black software (Zeiss).
All statistics were computed using Graphpad Prism software. One-way analysis of variance (ANOVA) with a Kruskall-Wallis post hoc analysis were performed following normality tests provided by Prism. In all figures, n are independent differentiations started from independent newly thawed hPSCs vials. For each condition at least 4 independent EBs were imaged in which all the cells were quantified by automated image analysis. The images were exported and saved as TIFF with Fiji if needed (Schindelin et al., 2012). Quantitative analyses on images were performed using the CellProfiler software (Carpenter et al., 2006) (Broad Institute open source at www.cellprofiler.org). DAPI stained nucleus were segmented into primary objects using CellProfiler segmentation pipeline and the nuclear mask was used to define objects on the target channels. The threshold to define positive nuclei for a given target was obtained using EBs' section negative for the target of interest. All images across conditions were then automatically analyzed in batch ensuring unbiased analysis. […]

[3] = FGF2 15 ng/ml D3 to D9 together with RA/SAG
[4] = FGF2 60 ng/ml D3 to D9 together with RA/SAG
[5] = FGF2 120 ng/ml for 24 h from D3, with RA/SAG
[6] = FGF2 120 ng/ml for 48 h from D3, with RA/SAG
[7] = GDF11 25 ng/ml for 24 h with RA on D3 progenitors

Molecule: Cc1cnc(-c2cnc(NCCNc3ccc(C#N)cn3)nc2-c2ccc(Cl)cc2Cl)[nH]1 [CHIR, 6-[[2-[[4-(2,4-dichlorophenyl)-5-(5-methyl-1H-imidazol-2-yl)-2 pyrimidinyl]amino]ethyl]amino]-3-pyridinecarbonitrile]
- homogenous population of progenitors expressing CDX2 on D3 (induced PSC (iPSC) line): necessary to generate a homogenous population of progenitors expressing CDX2 on D3

- number of EBs collected ([2]; inhibitor from D3 to D7): reduced number of EBs
Molecule: CCN(CC)CCCCNc1ncc2cc(-c3cc(OC)cc(OC)c3)c(NC(=O)NC(C)(C)C)nc2n1 [PD173074, reference compound]
- temporal increase of HOXC6, C8 and C9 mRNAs in progenitors [1]: prevent the temporal increase in caudal HOX expression
- rostro-caudal identity of MNs generated [2]: prevent the specification of HOXC8 and HOXC9 MNs; also recorded: anterior brachial identity (HOXC6)
- efficiency of MN generation [2]: not impacted

Molecule: O=C(NOC[C@H](O)CO)c1ccc(F)c(F)c1Nc1ccc(I)cc1F [PD0325901, reference compound]
- temporal increase of HOXC6, C8 and C9 mRNAs in progenitors [1]: blocked this increase at D4 or D5
- temporal increase of HOXC6, C8 and C9 mRNAs in progenitors ([1]; listed as PD032590): prevent the temporal increase in caudal HOX expression
- rostro-caudal identity of MNs generated [2]: anterior brachial identity (HOXC6)
- rostro-caudal identity of MNs generated ([2]; listed as PD032590): prevent the specification of HOXC8 and HOXC9 MNs
- efficiency of MN generation [2]: not impacted

Molecule: FGF2: Recombinant Human FGF basic, Peprotech, accession P09038; FGFR agonist
- HOX gene expression compared to RA/SAG controls ([1]; 24 h and 48 h post FGF2 treatment): precocious increase in HOXC8, HOXC9, HOXD9 and HOXC10 expression
- Caudal brachial HOXC8 MNs [2, 3]: 68.2%
- HOXC8 MNs, fold increase [2, 3]: 8.6 fold
- HOXC9+/HOXC6- thoracic MNs [2, 4]: 58.9%
- HOXC9+/HOXC6- thoracic MNs, fold increase [2, 4]: 82.5 fold
- HOXC6 MNs ([2]; FGF2 120 ng/ml D3 to D9 together with RA/SAG): reduced slightly more HOXC6 MNs
- FOXP1^high/SCIP MNs [2, 5]: 47.9%
- HOXC6 MNs [2, 5]: 49.7%
- HOXC8 MNs [2, 5]: 79.4%
- HOXC9 MNs [2, 5]: 14.7%
- FOXP1^high/SCIP MNs [2, 6]: 13.2%
- HOXC6 MNs [2, 6]: 7.5%
- HOXC9 MNs [2, 6]: 76.4%
- MN identities induced [2]: induce more caudal MN subtypes; also recorded: more caudal MN identities were induced without the need of delaying RA addition

B1: GDF11: Recombinant Human/Murine/Rat GDF11, Peprotech; member of the TGFβ family (protein, UniProt O95390 299-407, looked up)
Growth/differentiation factor …: NLGLDCDEHSSESRCCRYPLTVDFEAFGWDWIIAPKRYKANYCSGQCEYMFMQKYPHTHLVQQANPRGSAGPCCTPTKMSPINMLYFNDKQQIIYGKIPGMVVDRCGCS
- caudal thoracic or lumbar identities ([2]; GDF11 25 ng/ml for 24 h or 48 h with RA): none of the more caudal identities were observed
- HOXC8 MNs [2, 7]: 58.7%
- HOXC9 MNs [2, 7]: 41.0%
- anterior thoracic MNs ([2]; GDF11 25 ng/ml for 48 h with RA on D3 progenitors): increasing after 48 h
- MN identities induced [2]: induce more caudal MN subtypes

Source: patent US20230416675A1, “EFFICIENT AND RAPID SPECIFICATION OF SPINAL NEURONAL SUBTYPES FROM HUMAN PLURIPOTENT STEM CELLS” (INSERM (INSTITUT NATIONAL DE LA SANTE ET DE LA RECHERCHE …, priority 2020, published 2023)
